In patent US8445503B2, “Inhibitors of polo-like kinase” (Elan Pharmaceuticals, Inc., priority 2009, dated 2013):

Legend:
Format in all cases: biochemical
GST-PLK2 = target: T1, GST-PLK2 (Homo sapiens, UniProt Q9NYY3); assay: PLK TR-FRET peptide assay, PLK2; conditions: for IC50: PLK TR-FRET peptide assay, GST-PLK2, read-out: Plk2 IC50; for PLK2 activity relative to the opposite enantiomer / other isomer: comparison of resolved enantiomers, used to assign absolute configuration
T1 construct: purchased CarnaBio

GST-PLK1 = GST-PLK1 (Homo sapiens, UniProt P53350); assay: PLK TR-FRET peptide assay, PLK1; conditions: read-out: Plk1 IC50
GST-PLK3 = target: T2, GST-PLK3 (Homo sapiens, UniProt Q9H4B4); assay: PLK TR-FRET peptide assay, PLK3; conditions: PLK TR-FRET peptide assay, GST-PLK3; read-out: Plk3 IC50
T2 construct: purchased CarnaBio
T2 sequence (Q9H4B4 whole entry): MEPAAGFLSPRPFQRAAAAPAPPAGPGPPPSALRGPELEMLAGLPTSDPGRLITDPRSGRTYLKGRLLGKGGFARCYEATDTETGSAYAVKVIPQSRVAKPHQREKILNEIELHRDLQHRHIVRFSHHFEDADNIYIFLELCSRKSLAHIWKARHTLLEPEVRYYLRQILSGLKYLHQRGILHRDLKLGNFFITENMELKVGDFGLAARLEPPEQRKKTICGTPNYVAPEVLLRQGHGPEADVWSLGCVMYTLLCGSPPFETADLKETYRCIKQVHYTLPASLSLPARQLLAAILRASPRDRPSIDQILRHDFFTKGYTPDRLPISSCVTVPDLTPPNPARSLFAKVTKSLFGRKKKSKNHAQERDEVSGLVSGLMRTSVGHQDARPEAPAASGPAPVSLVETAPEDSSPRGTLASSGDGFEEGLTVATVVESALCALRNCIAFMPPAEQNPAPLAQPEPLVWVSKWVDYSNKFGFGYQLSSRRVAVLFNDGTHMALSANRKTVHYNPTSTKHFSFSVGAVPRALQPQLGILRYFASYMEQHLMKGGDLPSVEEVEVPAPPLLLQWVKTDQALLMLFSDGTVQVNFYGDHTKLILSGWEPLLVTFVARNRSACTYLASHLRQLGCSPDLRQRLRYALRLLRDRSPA

T1 sequence (Q9NYY3 whole entry): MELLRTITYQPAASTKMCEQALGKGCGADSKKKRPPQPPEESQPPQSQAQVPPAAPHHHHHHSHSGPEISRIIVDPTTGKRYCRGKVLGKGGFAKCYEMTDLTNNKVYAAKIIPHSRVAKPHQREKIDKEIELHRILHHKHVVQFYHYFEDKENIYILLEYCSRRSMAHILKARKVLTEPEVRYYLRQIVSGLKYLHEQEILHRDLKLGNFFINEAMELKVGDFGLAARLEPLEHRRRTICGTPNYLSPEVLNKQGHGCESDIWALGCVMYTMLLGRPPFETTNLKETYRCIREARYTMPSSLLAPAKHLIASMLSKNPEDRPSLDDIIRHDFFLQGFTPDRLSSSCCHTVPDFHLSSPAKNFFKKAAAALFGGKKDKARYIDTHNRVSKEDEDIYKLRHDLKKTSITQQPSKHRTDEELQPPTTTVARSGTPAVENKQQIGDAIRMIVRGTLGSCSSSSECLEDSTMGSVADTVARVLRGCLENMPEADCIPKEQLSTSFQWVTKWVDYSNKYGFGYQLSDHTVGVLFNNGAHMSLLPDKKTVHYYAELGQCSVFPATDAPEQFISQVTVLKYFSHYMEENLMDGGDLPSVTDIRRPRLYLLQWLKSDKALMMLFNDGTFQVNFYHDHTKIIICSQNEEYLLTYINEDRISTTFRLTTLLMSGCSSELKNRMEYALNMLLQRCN
GST-PLK1, sequence (P53350 whole entry): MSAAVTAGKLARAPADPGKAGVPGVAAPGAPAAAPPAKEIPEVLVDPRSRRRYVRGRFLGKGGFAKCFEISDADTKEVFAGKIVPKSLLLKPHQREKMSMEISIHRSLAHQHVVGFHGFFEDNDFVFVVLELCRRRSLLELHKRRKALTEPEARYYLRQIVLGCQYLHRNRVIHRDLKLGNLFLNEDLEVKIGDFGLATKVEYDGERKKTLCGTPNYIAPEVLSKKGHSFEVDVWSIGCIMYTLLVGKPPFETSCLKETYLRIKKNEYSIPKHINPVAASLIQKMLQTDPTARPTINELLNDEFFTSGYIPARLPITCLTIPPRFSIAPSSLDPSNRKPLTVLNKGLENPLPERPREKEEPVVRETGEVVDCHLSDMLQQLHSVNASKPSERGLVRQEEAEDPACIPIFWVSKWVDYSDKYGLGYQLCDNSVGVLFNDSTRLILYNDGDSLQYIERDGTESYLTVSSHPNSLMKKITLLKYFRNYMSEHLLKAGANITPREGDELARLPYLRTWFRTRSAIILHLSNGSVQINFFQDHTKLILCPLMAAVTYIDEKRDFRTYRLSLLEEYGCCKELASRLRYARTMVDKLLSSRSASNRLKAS

Compound | IC50 (GST-PLK2) [nM] | IC50 (GST-PLK1) [µM] | IC50 (GST-PLK3) [µM] | PLK2 activity relative to the opposite enantiomer / other isomer (GST-PLK2)
CCC1C(=O)N(C)c2cnc(-c3c[nH]nc3-c3ccc(F)cc3F)nc2N1c1ccn(C)n1 (centres unmarked) [Example 420, 2-(3-(2,4-difluorophenyl)-1H-pyrazol-4-yl)-7-ethyl-5-methyl-8-(1-methyl-1H-pyrazol-3-yl)-7,8-dihydropteridin-6(5H)-one] | < 1000 | < 1 | < 1 | –
CC[C@]12CN(C)CCN1c1nc(-n3ccnc3-c3ccccc3)ncc1N(C)C2=O [Example 375, (R)-6a-ethyl-5,8-dimethyl-2-(2-phenyl-1H-imidazol-1-yl)-7,8,9,10-tetrahydro-5H-pyrazino[2,1-h]pteridin-6(6aH)-one] | 10000 to 50000 | > 50 | > 50 | –
CC[C@]12COCCN1c1nc(-c3cccnc3-c3ccccc3)ncc1N(C)C2=O [Example 404] | > 50000 | > 50 | > 50 | –
CC[C@@H]1C(=O)N(C)c2cnc(-n3ncnc3-c3ccccc3)nc2N1C1CCCC1 [Example 135, (R)-8-cyclopentyl-7-ethyl-5-methyl-2-(5-phenyl-1H-1,2,4-triazol-1-yl)-7,8-dihydropteridin-6(5H)-one] | < 1000 | < 1 | < 1 | –
CC[C@@H]1C(=O)N(C)c2cnc(-n3ccnc3-c3ncccn3)nc2N1C(C)C [Example 148, (R)-7-ethyl-8-isopropyl-5-methyl-2-(2-(pyrimidin-2-yl)-1H-imidazol-1-yl)-7,8-dihydropteridin-6(5H)-one] | < 1000 | 1 to 10 | 10 to 50 | –
CC[C@@H]1C(=O)N(C)c2cnc(-c3sc(N)nc3-c3ccc(F)cc3)nc2N1C(C)C [Example 318, (R)-2-(2-amino-4-(4-fluorophenyl)thiazol-5-yl)-7-ethyl-8-isopropyl-5-methyl-7,8-dihydropteridin-6(5H)-one] | < 1000 | < 1 | < 1 | –
CC[C@@]12COCCN1c1nc(-n3ccnc3-c3ccccc3)ncc1N(C)C2=O (single isomer, unassigned) [Example 314] | < 1000 | > 50 | 1 to 10 | –
CC[C@@H]1C(=O)N(C)c2cnc(-n3ccc(=N)cc3)nc2N1C1CCCC1 [Example 73, (R)-8-cyclopentyl-7-ethyl-2-(4-iminopyridin-1(4H)-yl)-5-methyl-7,8-dihydropteridin-6(5H)-one] | 1000 to 10000 | 10 to 50 | > 50 | –
CC[C@]12COCCN1c1nc(-c3ccncc3-c3ccccc3)ncc1N(C)C2=O [Example 396, (R)-6a-ethyl-5-methyl-2-(3-phenylpyridin-4-yl)-6a,7,9,10-tetrahydro-[1,4]oxazino[3,4-h]pteridin-6(5H)-one] | > 50000 | > 50 | > 50 | –
CC[C@@H]1C(=O)N(C)c2cnc(-c3cn[nH]c3-c3ccccn3)nc2N1C1CCCC1 [Example 306, (R)-8-cyclopentyl-7-ethyl-5-methyl-2-(5-(pyridin-2-yl)-1H-pyrazol-4-yl)-7,8-dihydropteridin-6(5H)-one] | < 1000 | < 1 | < 1 | –
CC[C@@]12COCCN1c1nc(-c3ccncc3-c3ccccc3)ncc1N(C)C2=O [Example 394, (S)-6a-ethyl-5-methyl-2-(3-phenylpyridin-4-yl)-6a,7,9,10-tetrahydro-[1,4]oxazino[3,4-h]pteridin-6(5H)-one] | < 1000 | 1 to 10 | 1 to 10 | more active compound
CC[C@@H]1C(=O)N(C)c2cnc(-n3ccc(C(=O)O)n3)nc2N1C1CCCC1 [Example 56, (R)-1-(8-cyclopentyl-7-ethyl-5-methyl-6-oxo-5,6,7,8-tetrahydropteridin-2-yl)-1H-pyrazole-3-carboxylic acid] | < 1000 | 1 to 10 | 10 to 50 | –
CC[C@@H]1C(=O)N(C)c2cnc(-n3ccnc3-c3cccnc3)nc2N1C(C)C [Example 154, (R)-7-ethyl-8-isopropyl-5-methyl-2-(2-(pyridin-3-yl)-1H-imidazol-1-yl)-7,8-dihydropteridin-6(5H)-one] | < 1000 | 1 to 10 | 10 to 50 | –
CC[C@]12COCCN1c1nc(-n3ccnc3-c3nccs3)ncc1N(C)C2=O [Example 386, (R)-6a-ethyl-5-methyl-2-(2-(thiazol-2-yl)-1H-imidazol-1-yl)-6a,7,9,10-tetrahydro-[1,4]oxazino[3,4-h]pteridin-6(5H)-one] | > 50000 | > 50 | > 50 | –
CC[C@]12COCCN1c1nc(-n3ccnc3-c3ccc(F)cc3F)ncc1N(C)C2=O [Example 377, (R)-2-(2-(2,4-difluorophenyl)-1H-imidazol-1-yl)-6a-ethyl-5-methyl-6a,7,9,10-tetrahydro-[1,4]oxazino[3,4-h]pteridin-6(5H)-one] | 10000 to 50000 | > 50 | > 50 | –
CC[C@@]12CCCN1c1nc(-n3ccnc3-c3ccncc3)ncc1N(C)C2=O [Example 101, (S)-6a-ethyl-5-methyl-2-(2-(pyridin-4-yl)-1H-imidazol-1-yl)-6a,7,8,9-tetrahydropyrrolo[2,1-h]pteridin-6(5H)-one] | < 1000 | 10 to 50 | 10 to 50 | –
CC[C@@H]1C(=O)N(C)c2cnc(-n3ccnc3-c3ccc(S(C)(=O)=O)cc3)nc2N1C1CCCC1 [Example 79, (R)-8-cyclopentyl-7-ethyl-5-methyl-2-(2-(4-(methylsulfonyl)phenyl)-1H-imidazol-1-yl)-7,8-dihydropteridin-6(5H)-one] | < 1000 | 1 to 10 | 10 to 50 | –
CC[C@@H]1C(=O)N(C)c2cnc(-c3n[nH]cc3-c3ccccc3)nc2N1C1CCCC1 [Example 245, (R)-8-cyclopentyl-7-ethyl-5-methyl-2-(4-phenyl-1H-pyrazol-3-yl)-7,8-dihydropteridin-6(5H)-one] | < 1000 | < 1 | 1 to 10 | –
CC[C@@H]1C(=O)N(C)c2cnc(-n3ccnc3-c3cncnc3)nc2N1C1CCC1 [Example 176, (R)-8-cyclobutyl-7-ethyl-5-methyl-2-(2-(pyrimidin-5-yl)-1H-imidazol-1-yl)-7,8-dihydropteridin-6(5H)-one] | < 1000 | 1 to 10 | > 50 | –
CC[C@@H]1C(=O)N(C)c2cnc(-n3ccnc3-c3ccncc3)nc2N1C1CCCC1 [Example 83, (R)-8-cyclopentyl-7-ethyl-5-methyl-2-(2-(pyridin-4-yl)-1H-imidazol-1-yl)-7,8-dihydropteridin-6(5H)-one] | < 1000 | < 1 | < 1 | –
CC[C@@H]1C(=O)N(C)c2cnc(-n3ncnc3-c3ccn[nH]3)nc2N1C(C)C [Example 327, (R)-2-(5-(1H-pyrazol-5-yl)-1H-1,2,4-triazol-1-yl)-7-ethyl-8-isopropyl-5-methyl-7,8-dihydropteridin-6(5H)-one] | < 1000 | < 1 | 1 to 10 | –
CC[C@@H]1C(=O)N(C)c2cnc(-c3ccncc3)nc2N1C1CCC1 [Example 109, (R)-8-cyclobutyl-7-ethyl-5-methyl-2-(pyridin-4-yl)-7,8-dihydropteridin-6(5H)-one] | < 1000 | 1 to 10 | 10 to 50 | –
CCC1C(=O)N(C)c2cnc(-n3ccnc3-c3ccccc3)nc2N1NC(=O)OC(C)(C)C (centres unmarked) [Example 275, tert-butyl 7-ethyl-5-methyl-6-oxo-2-(2-phenyl-1H-imidazol-1-yl)-6,7-dihydropteridin-8(5H)-ylcarbamate] | 10000 to 50000 | > 50 | > 50 | –
CC[C@]12COCCN1c1nc(-c3cn[nH]c3-c3ccc(F)cc3F)ncc1N(C)C2=O [Example 412, (R)-2-(5-(2,4-difluorophenyl)-1H-pyrazol-4-yl)-6a-ethyl-5-methyl-6a,7,9,10-tetrahydro-[1,4]oxazino[3,4-h]pteridin-6(5H)-one] | 1000 to 10000 | > 50 | > 50 | –
CC[C@@H]1C(=O)N(C)c2cnc(-n3cnc(Br)c3)nc2N1C1CCCC1 [Example 43, (R)-2-(4-bromo-1H-imidazol-1-yl)-8-cyclopentyl-7-ethyl-5-methyl-7,8-dihydropteridin-6(5H)-one] | < 1000 | < 1 | 10 to 50 | –
CC[C@@H]1C(=O)N(C)c2cnc(-n3ccnc3-c3ccc(F)cc3)nc2N1c1ccn(C)n1 [Example 407, (R)-7-ethyl-2-(2-(4-fluorophenyl)-1H-imidazol-1-yl)-5-methyl-8-(1-methyl-1H-pyrazol-3-yl)-7,8-dihydropteridin-6(5H)-one] | < 1000 | 1 to 10 | 1 to 10 | more active compound
CC[C@@H]1C(=O)N(C)c2cnc(-c3ccncc3-c3ccccc3)nc2N1C(C)C [Example 110, (R)-7-ethyl-8-isopropyl-5-methyl-2-(3-phenylpyridin-4-yl)-7,8-dihydropteridin-6(5H)-one] | < 1000 | < 1 | < 1 | –
CC[C@@H]1C(=O)N(C)c2cnc(-n3cc(C(=O)O)cn3)nc2N1C1CCCC1 [Example 44, (R)-1-(8-cyclopentyl-7-ethyl-5-methyl-6-oxo-5,6,7,8-tetrahydropteridin-2-yl)-1H-pyrazole-4-carboxylic acid] | 1000 to 10000 | < 1 | 1 to 10 | –
CC[C@H]1C(=O)N(C)c2cnc(-n3ccnc3-c3ccccc3)nc2N1c1cnn(C)c1 [Example 410, (S)-7-ethyl-5-methyl-8-(1-methyl-1-pyrazol-4-yl)-2-(2-phenyl-1H-imidazol-1-yl)-7,8-dihydropteridin-6(5H)-one] | > 50000 | > 50 | > 50 | –
